Values joined by “and” are separate entries in the source; they are usually repeats but may differ in a detail not shown here. Equal entries are not always repeated.
Key:
Assay in all cases: In-cell proteome-wide competitive ABPP, HEK293: other DUBs and proteins
[1] = target: DUBs and other proteins in HEK293 cells (Homo sapiens, UniProt Q6P2Q9); settings: replicates A-C; for Log2 reporter intensity values: PRPF8: DMSO substract (FC); for Log2 reporter intensity values: PRPF8, DMSO subtracted
[2] = target: DUBs and other proteins in HEK293 cells (Homo sapiens, UniProt Q96FW1); settings: replicates A-C; for Log2 reporter intensity values: OTUB1: DMSO substract (FC); for Log2 reporter intensity values: OTUB1, DMSO subtracted
[3] = target: DUBs and other proteins in HEK293 cells (Homo sapiens, UniProt P51784); settings: replicates A-C; for Log2 reporter intensity values: USP11: DMSO substract (FC); for Log2 reporter intensity values: USP11, DMSO subtracted
[4] = target: T1, DUBs and other proteins in HEK293 cells (Homo sapiens, UniProt P40818); settings: for Log2 reporter intensity values: USP8: competition with ABP 2, DMSO substract (FC), replicates A-B; for Log2 reporter intensity values: USP8, DMSO subtracted
T1 sequence (P40818 1-1118): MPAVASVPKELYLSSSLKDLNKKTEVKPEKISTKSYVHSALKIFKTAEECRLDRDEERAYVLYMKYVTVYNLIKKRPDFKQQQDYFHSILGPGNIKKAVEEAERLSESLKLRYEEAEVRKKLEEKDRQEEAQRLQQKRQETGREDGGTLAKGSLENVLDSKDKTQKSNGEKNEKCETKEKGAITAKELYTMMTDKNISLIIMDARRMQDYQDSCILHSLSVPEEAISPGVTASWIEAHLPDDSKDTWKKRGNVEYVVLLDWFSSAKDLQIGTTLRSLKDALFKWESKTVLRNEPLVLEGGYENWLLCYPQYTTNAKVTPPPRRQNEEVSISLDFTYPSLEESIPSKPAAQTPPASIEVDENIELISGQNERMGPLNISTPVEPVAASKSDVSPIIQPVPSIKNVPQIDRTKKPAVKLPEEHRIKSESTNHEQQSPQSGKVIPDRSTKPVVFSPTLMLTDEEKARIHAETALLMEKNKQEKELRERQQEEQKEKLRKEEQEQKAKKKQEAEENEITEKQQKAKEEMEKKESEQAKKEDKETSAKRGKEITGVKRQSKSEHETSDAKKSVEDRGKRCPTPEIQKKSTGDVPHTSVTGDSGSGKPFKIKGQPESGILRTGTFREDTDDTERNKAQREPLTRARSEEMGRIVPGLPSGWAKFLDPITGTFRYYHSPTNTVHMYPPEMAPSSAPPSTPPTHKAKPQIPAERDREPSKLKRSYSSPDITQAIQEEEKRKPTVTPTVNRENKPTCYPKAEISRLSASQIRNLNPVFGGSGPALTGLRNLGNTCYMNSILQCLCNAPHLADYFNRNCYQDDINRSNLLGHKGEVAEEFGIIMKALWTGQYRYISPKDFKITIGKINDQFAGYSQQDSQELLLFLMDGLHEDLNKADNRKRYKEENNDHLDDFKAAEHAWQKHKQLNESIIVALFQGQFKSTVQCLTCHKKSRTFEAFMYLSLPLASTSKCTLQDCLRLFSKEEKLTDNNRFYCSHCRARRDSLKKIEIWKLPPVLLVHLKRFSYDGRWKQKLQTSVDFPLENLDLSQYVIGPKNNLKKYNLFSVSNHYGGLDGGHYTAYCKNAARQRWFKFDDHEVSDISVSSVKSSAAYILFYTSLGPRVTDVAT

[5] = target: T2, DUBs and other proteins in HEK293 cells (Homo sapiens, UniProt Q96RU2); settings: replicates A-C; for Log2 reporter intensity values: USP28: competition with ABP 2, DMSO substract (FC); for Log2 reporter intensity values: USP28, DMSO subtracted
T2 sequence (Q96RU2 1-1077): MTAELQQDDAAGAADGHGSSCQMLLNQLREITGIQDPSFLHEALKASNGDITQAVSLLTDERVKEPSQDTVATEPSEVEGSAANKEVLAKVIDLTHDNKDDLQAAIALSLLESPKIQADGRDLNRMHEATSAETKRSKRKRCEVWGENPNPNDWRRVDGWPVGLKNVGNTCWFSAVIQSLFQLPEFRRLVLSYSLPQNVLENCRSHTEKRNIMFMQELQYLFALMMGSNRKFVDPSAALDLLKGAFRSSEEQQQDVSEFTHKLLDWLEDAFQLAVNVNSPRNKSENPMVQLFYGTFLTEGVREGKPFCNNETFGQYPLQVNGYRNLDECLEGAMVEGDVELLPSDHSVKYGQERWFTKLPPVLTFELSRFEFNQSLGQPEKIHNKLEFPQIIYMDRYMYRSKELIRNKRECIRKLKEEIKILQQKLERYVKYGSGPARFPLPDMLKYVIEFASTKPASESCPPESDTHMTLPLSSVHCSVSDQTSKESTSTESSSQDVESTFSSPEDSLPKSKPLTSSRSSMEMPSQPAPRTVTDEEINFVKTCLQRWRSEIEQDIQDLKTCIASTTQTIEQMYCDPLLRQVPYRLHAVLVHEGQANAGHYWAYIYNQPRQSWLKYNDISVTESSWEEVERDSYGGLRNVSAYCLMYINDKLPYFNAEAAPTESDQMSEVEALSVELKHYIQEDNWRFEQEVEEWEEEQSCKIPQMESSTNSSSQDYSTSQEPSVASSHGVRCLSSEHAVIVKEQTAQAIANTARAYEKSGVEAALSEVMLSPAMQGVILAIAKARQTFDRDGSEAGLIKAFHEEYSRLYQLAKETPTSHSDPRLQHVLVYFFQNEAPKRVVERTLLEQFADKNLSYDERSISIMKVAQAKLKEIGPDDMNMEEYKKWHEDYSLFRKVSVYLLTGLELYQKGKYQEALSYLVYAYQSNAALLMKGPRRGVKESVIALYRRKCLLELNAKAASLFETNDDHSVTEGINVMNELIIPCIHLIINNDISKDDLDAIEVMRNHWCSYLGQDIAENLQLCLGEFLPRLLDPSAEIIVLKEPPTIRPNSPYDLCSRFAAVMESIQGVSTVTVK

[6] = 1 at 1 μM, competition with ABP 2
[7] = 1 at 4 μM, competition with ABP 2

DUBs and other proteins in HEK293 cells (Homo sapiens, UniProt P51784), sequence (P51784 whole entry): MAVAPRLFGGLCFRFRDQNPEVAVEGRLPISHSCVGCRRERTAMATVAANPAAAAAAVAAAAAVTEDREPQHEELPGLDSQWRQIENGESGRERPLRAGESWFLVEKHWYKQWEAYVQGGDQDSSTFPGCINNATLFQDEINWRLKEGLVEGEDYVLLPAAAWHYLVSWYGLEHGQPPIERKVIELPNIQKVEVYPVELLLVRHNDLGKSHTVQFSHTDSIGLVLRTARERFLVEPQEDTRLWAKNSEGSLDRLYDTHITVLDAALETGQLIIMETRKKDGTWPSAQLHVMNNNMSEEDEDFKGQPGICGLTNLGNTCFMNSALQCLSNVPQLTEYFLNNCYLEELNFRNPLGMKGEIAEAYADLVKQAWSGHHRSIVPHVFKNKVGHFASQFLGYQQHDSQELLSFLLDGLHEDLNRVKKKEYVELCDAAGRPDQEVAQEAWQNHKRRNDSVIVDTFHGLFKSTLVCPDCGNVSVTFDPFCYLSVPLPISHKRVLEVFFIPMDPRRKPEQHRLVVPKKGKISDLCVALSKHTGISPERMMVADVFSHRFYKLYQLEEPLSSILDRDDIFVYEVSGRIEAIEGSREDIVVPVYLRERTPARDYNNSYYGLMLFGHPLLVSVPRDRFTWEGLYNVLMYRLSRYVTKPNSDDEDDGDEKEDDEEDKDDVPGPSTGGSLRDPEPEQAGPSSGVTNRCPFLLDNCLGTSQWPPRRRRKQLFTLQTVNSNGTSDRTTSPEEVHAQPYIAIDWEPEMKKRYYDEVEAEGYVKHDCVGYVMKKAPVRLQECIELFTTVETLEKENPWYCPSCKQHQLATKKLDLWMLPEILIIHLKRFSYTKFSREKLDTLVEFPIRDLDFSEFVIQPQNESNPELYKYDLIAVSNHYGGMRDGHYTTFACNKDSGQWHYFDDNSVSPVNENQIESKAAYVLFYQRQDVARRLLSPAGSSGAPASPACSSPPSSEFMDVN
DUBs and other proteins in HEK293 cells (Homo sapiens, UniProt Q96FW1), sequence (Q96FW1 whole entry): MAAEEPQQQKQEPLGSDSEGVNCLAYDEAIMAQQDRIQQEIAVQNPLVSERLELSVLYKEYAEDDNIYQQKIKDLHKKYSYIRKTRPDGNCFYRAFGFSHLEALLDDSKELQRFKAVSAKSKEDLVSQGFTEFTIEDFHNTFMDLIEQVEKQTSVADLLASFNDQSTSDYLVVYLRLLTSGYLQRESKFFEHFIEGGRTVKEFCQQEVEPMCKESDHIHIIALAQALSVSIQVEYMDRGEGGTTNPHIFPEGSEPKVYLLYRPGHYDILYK

N#CN1CCC[C@H]1C(=O)N1CCc2c(-c3c[nH]c4ncccc34)cccc21 [Compound 1]
Log2 reporter intensity values: PRPF8 [1, 6]: 0.961 and 0.941 and 0.9412
Log2 reporter intensity values: PRPF8 [1, 7]: 0.9254 and 0.9448 and 0.8776
Log2 reporter intensity values ([1]; 1_1 μM): -0.03926 and -0.05927 and -0.05901
Log2 reporter intensity values ([1]; 1_4 μM): -0.07482 and -0.05547 and -0.1226
Log2 reporter intensity values ([1]; 1 at 1 μM): -0.05742 and -0.08778 and -0.08738
Log2 reporter intensity values ([1]; 1 at 4 μM): -0.1118 and -0.08196 and -0.1883
Log2 reporter intensity values: OTUB1 [2, 6]: 1.079 and 1.058 and 1.055
Log2 reporter intensity values: OTUB1 [2, 7]: 0.9564 and 0.9957 and 1.033
Log2 reporter intensity values ([2]; 1_1 μM): 0.07905 and 0.05739 and 0.05461
Log2 reporter intensity values ([2]; 1_4 μM): -0.04373 and -0.004436 and 0.03334
Log2 reporter intensity values ([2]; 1 at 1 μM): 0.1099 and 0.08068 and 0.07687
Log2 reporter intensity values ([2]; 1 at 4 μM): -0.06433 and -0.00624 and 0.04749
Log2 reporter intensity values: USP11 [3, 6]: 1.082 and 1.001 and 1.048
Log2 reporter intensity values: USP11 [3, 7]: 1.053 and 0.9981 and 1.068
Log2 reporter intensity values ([3]; 1_1 μM): 0.08158 and 0.0009743 and 0.04766
Log2 reporter intensity values ([3]; 1_4 μM): 0.05297 and -0.002249 and 0.06752
Log2 reporter intensity values ([3]; 1 at 1 μM): 0.1136 and 0.00189 and 0.06764
Log2 reporter intensity values ([3]; 1 at 4 μM): 0.07493 and -0.002761 and 0.09472
Log2 reporter intensity values: USP8 ([4]; 1 at 1 μM): 0.9851 and 0.9804
Log2 reporter intensity values: USP8 ([4]; 1 at 4 μM): 1.1 and 1.102
Log2 reporter intensity values ([4]; 1_1 μM, replicates A-B (C NaN)): -0.01738 and -0.02201
Log2 reporter intensity values ([4]; 1_4 μM, replicates A-B (C NaN)): 0.09749 and 0.0991
Log2 reporter intensity values ([4]; 1 at 1 μM, replicates A-C): -0.0217 and -0.0285
Log2 reporter intensity values ([4]; 1 at 4 μM, replicates A-C): 0.1374 and 0.1395
Log2 reporter intensity values: USP28 ([5]; 1 at 1 μM): 0.9959 and 0.8739 and 1.601
Log2 reporter intensity values: USP28 ([5]; 1 at 4 μM): 1.351 and 1.583 and 1.105
Log2 reporter intensity values ([5]; 1_1 μM): -0.04385 and -0.1658 and 0.561
Log2 reporter intensity values ([5]; 1_4 μM): 0.3117 and 0.5434 and 0.06533
Log2 reporter intensity values ([5]; 1 at 1 μM): -0.005982 and -0.1944 and 0.6787
Log2 reporter intensity values ([5]; 1 at 4 μM): 0.4345 and 0.6627 and 0.1441

C#Cc1cnc2[nH]cc(-c3cccc4c3CCN4C(=O)[C@@H]3CCCN3C#N)c2c1 [Compound 2]
Log2 reporter intensity values: PRPF8 ([1]; 20 nM ABP 2 alone): 0.8057 and 0.8767 and 0.8316
Log2 reporter intensity values ([1]; 20 nM ABP 2): -0.3117 and -0.1898 and -0.2661 and -0.1946 and -0.1687
Log2 reporter intensity values: OTUB1 ([2]; 20 nM ABP 2 alone): 1.065 and 1.087 and 1.08
Log2 reporter intensity values ([2]; 20 nM ABP 2): 0.1206 and 0.06511 and 0.07959
Log2 reporter intensity values: USP11 ([3]; 20 nM ABP 2 alone): 0.9204 and 1.006 and 0.9863
Log2 reporter intensity values ([3]; 20 nM ABP 2): -0.1196 and 0.008385 and -0.01996 and -0.07989 and 0.005492 and -0.01408

— PMC7366380, “Discovery of a Potent and Selective Covalent Inhibitor and Activity-Based Probe for the Deubiquitylating Enzyme UCHL1, with Antifibrotic Activity” (Journal of the American Chemical Society, 2020)
